Article PMC7503370, “Cellular Signaling and Anti-Apoptotic Effects of Prolactin-Releasing Peptide and Its Analog on SH-SY5Y Cells” (International Journal of Molecular Sciences, 2020)

Tests used:
Format in all cases: cell-based, human
[1] = test system: p-m-Tor, p-GSK-3β, p-ERK, p-CREB in SH-SY5Y cells; assay: Western blotting with selective inhibitors of signaling pathways
Method: Immunoblots with PrRP31 and palm^11-PrRP31: (a) and insulin: (b) and their quantifications: (c). SH-SY5Y cells were incubated firstly with selective inhibitors for 2 min and then either with PrRP31 and its palmitoylated analog at a final concentration 1 × 10^−5 M, or with insulin in the final concentration 1 × 10^−7 M at 37 °C for 8 min, or alone in serum-free medium. Activated protein was normalized to loading control, GAPDH. Data are presented as the means ± SEM as a percentage of control cells treated with medium alone. Analysis is made between groups as shown in the graph by a Student’s t-test, * p < 0.5, ** p < 0.01, *** p < 0.001(each sample in triplicates).
(§1) Eight minutes of incubation was performed in a series of experiments with different exposure times (5, 10, 15, 30, and 60 min) to PrRP31 and its palmitoylated analog. Activation of analogs was strongest after 10 min. Then, the cells were treated with inhibitors of signaling pathways for 2 min, and analogs were added for 8 min. The time of exposure was set to 8 min to ensure that the incubation time for PrRP31 and its palmitoylated analog was the same. The controls and compounds were tested in triplicate in three independent experiments. The PI3K/Akt pathway is one of the main signaling pathways of insulin; therefore, insulin was used as a positive control. Scrambled peptide was used as a negative control. Activation is expressed as the ratio of the activated protein to the total amount of the protein. GAPDH was used as a loading control.
For further research, inhibitors of signaling pathways were used. The growth medium was exchanged for serum-free DMEM 16 h before the experiment. On the day of the experiment, cells were incubated for 2 min with rapamycin, SB216736 or U0126 at a final concentration of 1 × 10^−6 M; then, PrRP31, palm^11-PrRP31 or scrambled peptide at a final concentration of 1 × 10^−5 M or insulin at a concentration of 1 × 10^−7 M was added for 8 min. The plates were stored at 37 °C. The controls and compounds were tested in triplicate.

[2] = test system: PI3K/Akt signaling pathway in SH-SY5Y cells; assay: Western blotting of PI3K/Akt signaling pathway after 8 min incubation; details: 37 °C
Method: Figure 1 Prolactin-releasing peptide 31 (PrRP31) and palm^11-PrRP31 increased phosphoinositide-3 kinase (PI3K/Akt) signaling pathway in SH-SY5Y cells. Immunoblots: (a) and their quantifications: (b). SH-SY5Y cells were incubated either with PrRP31 and its palmitoylated analog and scrambled at a final concentration 1 × 10^-5 M, or with insulin at the final concentration 1 × 10^−7 M at 37 °C for 8 min, or medium alone (control). Activation was expressed as the ratio of the activated protein to the total amount of the protein, both normalized to loading control, glyceraldehyde 3-phosphate dehydrogenase (GAPDH). Data are presented as the means ± SEM as a percentage of control cells analyzed by one-way ANOVA followed by the Dunnett post hoc test, * p < 0.5, ** p < 0.01, **** p < 0.0001 (n = 3, each sample in triplicates).
(§2) For the investigation of the molecular mechanism of PrRP31 and its analog in the cells, signaling pathways were studied by Western blotting (WB). The cells were cultured in 6-well plates at a density of 800,000 cells per well. Growth medium was exchanged for serum-free DMEM 16 h before an experiment, and then, the cells were incubated with PrRP31, palm^11-PrRP31, or scrambled peptide at a final concentration of 1 × 10^−5 M or insulin at a concentration of 1 × 10^−7 M at 37 °C for 8 min. The cells were rapidly cooled on ice and lysed in 400 µl of Laemmli sample buffer (62.5 mM Tris-HCl with pH 6.8, 2% SDS, 10% glycerol, 0.01% bromophenol blue, 5% mercaptoethanol, 50 mM NaF, and 1 mM Na3VO4) and stored at −20 °C. Afterward, the cell lysates were analyzed by WB. SDS-electrophoresis and WB were carried out using a Criterion system with a 26-well 4−15% Criterion^TM TGX^TM Precast Midi Protein Gel (Bio-Rad, Hercules, CA, USA) at a constant voltage of 200 V or 100 V, respectively.
(§3) Subsequently, the membranes were incubated overnight with primary antibody (Ab) at 4 °C, according to the manufacturer´s instructions (Table 2). The next day, the membranes were incubated with an HRP-linked secondary antibody for 1 h at room temperature. Chemiluminescence was visualized with a ChemiDoc^TM System (Bio-Rad). Band intensities were normalized using glyceraldehyde 3-phosphate dehydrogenase (GAPDH) as an internal loading control.
as §1

[3] = test system: Tau protein phosphorylation in SH-SY5Y cells; assay: Western blotting of Tau phosphorylation in MG-stressed cells; details: 0.6 mM MG 16 h vs control cells
Method: (§4) Figure 8 PrRP31 and palm^11-PrRP31 attenuate Tau hyperphosphorylation at the epitope Ser396 in SH-SY5Y. Immunoblots with: (a) and their quantifications: (b). SH-SY5Y cells were pretreated with PrRP31 and palm^11-PrRP31 at a concentration of 1 × 10^−5 M for 4 h and then stressed with 0.6 mM MG for 16 h. Activation was expressed as the ratio of the activated protein to the total amount of the protein, both normalized to loading control, GAPDH. Data are presented as the means ± SEM as a percentage of control cells treated with medium alone. Analysis is made vs. MG by a Student’s t-test, * p < 0.5, ** p < 0.01 (each sample replicate in triplicate).
as §2, §3
(§5) For analysis of the molecular mechanism during MG stress, the growth medium was exchanged for serum-free DMEM 16 h before the experiment. The cells were pretreated with 1 × 10^−5 M PrRP31 or palm^11-PrRP31 for 4 h; then, MG was added to a final concentration of 0.6 mM, and the cells were incubated at 37 °C for 16 h. The controls and compounds were tested in triplicate.

[4] = test system: p-c-Jun, p-ERK, p-Bad, Bax/Bcl-2 in SH-SY5Y cells; assay: Western blotting of anti-apoptotic signaling in MG-stressed cells; details: 0.6 mM MG 16 h vs control cells
Method: as §4, with “7” for “8”, “affected anti-apoptotic signaling” for “attenuate Tau hyperphosphorylation at the epitope Ser396”, “SH-SY5Y cells. Immunoblots:” for “SH-SY5Y. Immunoblots with:”, “sample” for “sample replicate”, “triplicates).” for “triplicate).”
as §2, §3, §5

[5] = inhibitor 1 × 10^−6 M for 2 min, then peptide for 8 min, under the control level
[6] = PrRP31 and palm^11-PrRP31 1 × 10^−5 M, insulin 1 × 10^−7 M, 37 °C, 8 min

## N#CC(=C(/N)Sc1ccccc1N)/C(C#N)=C(/N)Sc1ccccc1N [U0126]
[1]; [5]
  effect on the increase of p-ERK and p-CREB by PrRP31, palm^11-PrRP31 and insulin: significantly blocked

## insulin: human insulin used as a positive control
[2]; positive control, 1 × 10^−7 M
  activation of proteins of the insulin signaling cascade: significantly activated
[1]; [6]
  p-CREB after incubation with peptide, no inhibitor: increased
  p-ERK after incubation with peptide, no inhibitor: increased
[1]; PrRP31 and palm^11-PrRP31 1 × 10^−5 M, insulin 1 × 10^−7 M, 37 °C, 8 min, normalized to GAPDH, triplicates
  p-m-Tor (Ser2448) after application of peptide, no inhibitor: significantly increased
[1]; palm^11-PrRP31 1 × 10^−5 M, insulin 1 × 10^−7 M, 37 °C, 8 min, normalized to GAPDH, triplicates
  p-GSK-3β (Ser9) after incubation with peptide, no inhibitor: slight increase

## GHFTHSIRMI K^11 (γ-E (N-palm))TPRNASVYARPCitDWWGICitPES [scrambled-palm^11-PrRP31]
[2]; negative control, 1 × 10^-5 M
  effect on the PI3K/Akt pathway: did not significantly affect

## CC(=O)C=O [MG, methylglyoxal, reference compound]
[3]
  Tau phosphorylation at Ser198/199/202 (Tau 1)/Tau 5 after MG: tended to increase
  Tau phosphorylation at Ser396 after MG: increased
[4]
  level of p-Bad (Ser112)/Bad after MG: increased
  level of p-Bad (Ser136)/Bad after MG: increased
  level of p-c-Jun (Ser73)/c-Jun after MG: increased

## Cn1cc(C2=C(c3ccc(Cl)cc3Cl)C(=O)NC2=O)c2ccccc21 [SB216736]
[1]; inhibitor 1 × 10^−6 M for 2 min, then insulin 1 × 10^−7 M for 8 min
  effect on the level of p-GSK-3β (Ser9) in cells treated with insulin: tended to decrease
[1]; inhibitor 1 × 10^−6 M for 2 min, then palm^11-PrRP31 1 × 10^−5 M for 8 min
  effect on the palm^11-PrRP31-induced increase of p-GSK-3β (Ser9): significantly reversed

## CO[C@H]1C[C@@H]2CC[C@@H](C)[C@@](O)(O2)C(=O)C(=O)N2CCCC[C@H]2C(=O)O[C@H]([C@H](C)C[C@@H]2CC[C@@H](O)[C@H](OC)C2)CC(=O)[C@H](C)/C=C(\C)[C@@H](O)[C@@H](OC)C(=O)[C@H](C)C[C@H](C)/C=C/C=C/C=C/1C [rapamycin, Rapamycin]
[1]; [5]
  effect on the increase of p-m-Tor (Ser2448) by PrRP31, palm^11-PrRP31 and insulin: inhibited
